# In patent publication US7595397B2, “Compounds which modulate the CB2 receptor” (Boehringer Ingelheim International GmbH, priority 2005, dated 2009):
# Target: T1, human CB2R (Homo sapiens, UniProt P34972)
# T1 construct: host or cells: CHO cells
# Test: CB2R mediated modulation of cAMP synthesis
# Type: cell-based
# Conditions: CHO cells expressing human CB2R; decrease of forskolin induced cAMP; found 'through the use of the above described assays'
# Description: B. CB2R Mediated Modulation of cAMP Synthesis:
# CHO cells expressing human CB2R (Euroscreen) were plated at a density of 5000 cells per well in 384 well plates and incubated overnight at 37° C. After removing the media, the cells were treated with test compounds diluted in stimulation buffer containing 1 mM IBMX, 0.25% BSA and 10 uM Forskolin. The assay was incubated for 30 minutes at 37° C. Cells were lysed and the cAMP concentration was measured using DiscoverX-XS cAMP kit, following the manufacturer's protocol. In this setting, agonists will decrease forskolin induced production of cAMP while inverse agonists will further increase forskolin induced production of cAMP. EC50 of agonists were calculated as follows. The maximal amount of cAMP produced by forskolin compared to the level of cAMP inhibited by 1 uM CP55940 is defined as 100%. The EC50 value of each test compound was determined as the concentration at which 50% of the forskolin-stimulated cAMP synthesis was inhibited. Data was analyzed using a four-parameter logistic model. (Model 205 of XLfit 4.0).
# T1 sequence (P34972 whole entry): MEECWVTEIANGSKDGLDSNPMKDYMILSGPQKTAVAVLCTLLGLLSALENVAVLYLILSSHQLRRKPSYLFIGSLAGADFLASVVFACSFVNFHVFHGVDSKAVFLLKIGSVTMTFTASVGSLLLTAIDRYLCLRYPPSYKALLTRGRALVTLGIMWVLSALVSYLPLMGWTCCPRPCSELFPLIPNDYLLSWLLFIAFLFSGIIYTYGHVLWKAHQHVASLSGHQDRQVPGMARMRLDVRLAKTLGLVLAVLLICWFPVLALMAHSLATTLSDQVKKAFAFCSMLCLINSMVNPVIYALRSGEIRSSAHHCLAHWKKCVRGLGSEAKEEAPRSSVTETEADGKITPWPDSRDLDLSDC
row,agonistic activity,Structure (SMILES)
1,agonistic activity,Clc1ccccc1-c1ccc(CN2CCCC(c3ccccc3)C2)cc1 (centres unmarked) [1-(2′-Chloro-biphenyl-4-ylmethyl)-3-phenyl-piperidine]
2,agonistic activity,O=S(=O)(c1ccccc1)N1CCN(Cc2ccc(-c3ccccc3C(F)(F)F)cc2)CC1c1ccccc1 (centres unmarked) [1-Benzenesulfonyl-2-phenyl-4-(2′-trifluoromethyl-biphenyl-4-ylmethyl)-piperazine]
3,agonistic activity,FC(F)(F)c1ccccc1-c1ccc(CN2CCOC(c3ccccc3)C2)cc1 (centres unmarked) [2-Phenyl-4-(2′-trifluoromethyl-biphenyl-4-ylmethyl)-morpholine]
4,agonistic activity,c1ccc(C2CN(Cc3ccc(-c4ccccn4)cc3)CCO2)cc1 (centres unmarked) [2-Phenyl-4-(4-pyridin-2-yl-benzyl)-morpholine]
5,agonistic activity,c1ccc(C2CN(Cc3ccc(-c4ccsc4)cc3)CCO2)cc1 (centres unmarked) [2-Phenyl-4-(4-thiophen-3-yl-benzyl)-morpholine]
6,agonistic activity,FC(F)(F)c1ccccc1-c1ccc(CN2CCNC(Cc3ccccc3)C2)cc1 (centres unmarked) [3-Benzyl-1-(2′-trifluoromethyl-biphenyl-4-ylmethyl)-piperazine]
7,agonistic activity,FC(F)(F)c1ccccc1-c1ccc(CN2CCCC(c3ccccc3)C2)cc1 (centres unmarked) [3-Phenyl-1-(2′-trifluoromethyl-biphenyl-4-ylmethyl)-piperidine]
8,agonistic activity,"Clc1cccc(-c2ccc(CN3CCOC(c4ccccc4)C3)cc2)c1Cl (centres unmarked) [4-(2′,3′-Dichloro-biphenyl-4-ylmethyl)-2-phenyl-morpholine]"
9,agonistic activity,Cc1ccc(Cl)c(-c2ccc(CN3CCOC(c4ccccc4)C3)cc2)c1 (centres unmarked) [4-(2′-Chloro-5′-methyl-biphenyl-4-ylmethyl)-2-phenyl-morpholine]
10,agonistic activity,Clc1ccccc1-c1ccc(CN2CCOC(c3ccccc3)C2)cc1 (centres unmarked) [4-(2′-Chloro-biphenyl-4-ylmethyl)-2-phenyl-morpholine]
11,agonistic activity,CCOc1ccccc1-c1ccc(CN2CCOC(c3ccccc3)C2)cc1 (centres unmarked) [4-(2′-Ethoxy-biphenyl-4-ylmethyl)-2-phenyl-morpholine]
12,agonistic activity,FC(F)(F)c1ccccc1-c1ccc(CN2CCOCC2)cc1 [4-(2′-Trifluoromethyl-biphenyl-4-ylmethyl)-morpholine]
13,agonistic activity,Clc1sccc1-c1ccc(CN2CCOC(c3ccccc3)C2)cc1 (centres unmarked) [4-[4-(2-Chloro-thiophen-3-yl)-benzyl]-2-phenyl-morpholine]
14,agonistic activity,N#Cc1ccccc1-c1ccc(CN2CCOC(c3ccccc3)C2)cc1 (centres unmarked) [4′-(2-Phenyl-morpholin-4-ylmethyl)-biphenyl-2-carbonitrile]
15,agonistic activity,FC(F)(F)c1ccccc1-c1ccc(CN2CCO[C@@H](c3ccccc3)C2)cn1 [(S)-2-Phenyl-4-[6-(2-trifluoromethyl-phenyl)-pyridin-3-ylmethyl]-morpholine]
16,agonistic activity,"Clc1cccc(-c2ccc(CN3CCO[C@@H](c4ccccc4)C3)cc2)c1Cl [Example 183, (S)-4-(2′,3′-Dichloro-biphenyl-4-ylmethyl)-2-phenyl-morpholine]"
17,agonistic activity,"c1ccc(C[C@H]2CN(Cc3ccc(-c4ccccc4)nc3)CCN2)cc1 [Example 186, (S)-3-Benzyl-1-(6-phenyl-pyridin-3-ylmethyl)-piperazine]"
18,agonistic activity,"c1ccc(-c2ccc(CN3CCO[C@@H](c4ccccc4)C3)cn2)cc1 [Example 188, (S)-2-Phenyl-4-(6-phenyl-pyridin-3-ylmethyl)-morpholine]"
19,agonistic activity,"Clc1cccc(-c2ccc(CN3CCO[C@@H](c4ccccc4)C3)cn2)c1 [Example 189, (S)-4-[6-(3-Chloro-phenyl)-pyridin-3-ylmethyl]-2-phenyl-morpholine]"
20,agonistic activity,"Clc1sccc1-c1ccc(CN2CCO[C@@H](c3ccccc3)C2)cc1 [Example 191, (S)-4-[4-(2-Chloro-thiophen-3-yl)-benzyl]-2-phenyl-morpholine]"
21,agonistic activity,"N#Cc1ccccc1-c1ccc(CN2CCO[C@@H](c3ccccc3)C2)cc1 [Example 192, 4′-((S)-2-Phenyl-morpholin-4-ylmethyl)-biphenyl-2-carbonitrile]"
22,agonistic activity,"Clc1ccccc1-c1ccc(CN2CCO[C@@H](c3ccccc3)C2)cc1 [Example 193, (S)-4-(2′-Chloro-biphenyl-4-ylmethyl)-2-phenyl-morpholine]"
23,agonistic activity,O=C(c1ccccc1)N1CCN(Cc2ccc(-c3ccccc3C(F)(F)F)cc2)CC1Cc1ccccc1 (centres unmarked) [Phenyl-[2-benzyl-4-(2′-trifluoromethyl-biphenyl-4-ylmethyl)-piperazin-1-yl]-methanone]
